According to ChEMBL document CHEMBL5291721, “A preclinical secondary pharmacology resource illuminates target-adverse drug reaction associations of marketed drugs” (Nat Commun, 2023):

Molecular target: T1, Muscarinic acetylcholine receptor M1 (Homo sapiens, UniProt P11229)
T1 sequence (P11229 whole entry): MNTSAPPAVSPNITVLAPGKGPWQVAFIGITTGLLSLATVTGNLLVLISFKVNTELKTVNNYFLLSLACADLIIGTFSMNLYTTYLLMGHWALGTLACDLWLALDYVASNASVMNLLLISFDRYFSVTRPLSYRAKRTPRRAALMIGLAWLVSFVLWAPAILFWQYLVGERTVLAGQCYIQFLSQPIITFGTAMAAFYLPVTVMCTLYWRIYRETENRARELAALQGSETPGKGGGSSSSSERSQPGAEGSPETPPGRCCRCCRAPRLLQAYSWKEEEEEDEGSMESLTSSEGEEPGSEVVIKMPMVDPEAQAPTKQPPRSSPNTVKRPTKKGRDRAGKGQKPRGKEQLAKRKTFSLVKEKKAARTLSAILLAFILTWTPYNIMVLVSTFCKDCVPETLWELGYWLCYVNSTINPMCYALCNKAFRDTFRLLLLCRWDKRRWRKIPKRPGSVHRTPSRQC
Further: assay procedure not described here.

Cc1cc2c(cc1CC(=O)c1sccc1S(=O)(=O)Nc1onc(C)c1Cl)OCO2 [SITAXENTAN]
AC50: > 30 µM
